In patent US10092584B2 (Achillion Pharmaceuticals, Inc., priority 2015, dated 2018):

Each molecule was assayed against T1, Human Factor D (Homo sapiens, UniProt P00746) (assay: Human Factor D assay (Example 8)). Settings: not given.
T1 construct: purified from human serum; purchased Complement Technology, Inc; host or cells: human serum
Type: biochemical
Experimental: Human Factor D (purified from human serum, Complement Technology, Inc.) at 80 nM final concentration was incubated with test compound at various concentrations for 5 minutes at room temperature in 50 mM Tris, 1M NaCl, pH 7.5. A synthetic substrate Z-L-Lys-SBzl and DTNB (Ellman's reagent) are added to final concentrations of 100 μM each. […] IC50 values are calculated by nonlinear regression of complement Factor D reaction rates as a function of test compound concentration.

T1 sequence (P00746 26-253): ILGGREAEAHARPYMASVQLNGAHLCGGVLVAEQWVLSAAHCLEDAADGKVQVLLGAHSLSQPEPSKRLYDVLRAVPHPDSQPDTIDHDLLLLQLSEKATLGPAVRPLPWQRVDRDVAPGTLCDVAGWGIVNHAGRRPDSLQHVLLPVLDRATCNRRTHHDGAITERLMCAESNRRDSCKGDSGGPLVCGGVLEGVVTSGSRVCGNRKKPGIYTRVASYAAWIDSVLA

Compound | IC50 [nM]
NC(=O)c1nn(CC(=O)N2C[C@H](F)C[C@H]2C(=O)Nc2cccc(-c3ccc(F)c(F)c3Cl)c2F)c2ccccc12 [Compound 92, 1-(2-((2S,4R)-2-(2′-chloro-2,3′,4′-trifluorobiphenyl-3-ylcarbamoyl)-4-fluoropyrrolidin-1-yl)-2-oxoethyl)-1H-indazole-3-carboxamide] | < 1000
CC(=O)c1cn(CC(=O)N2C[C@H](F)C[C@H]2C(=O)Nc2cccc(-c3ccc(F)c(F)c3Cl)c2F)c2ccccc12 [Compound 93, (2S,4R)-1-(2-(3-acetyl-1H-indol-1-yl)acetyl)-N-(2′-chloro-2,3′,4′-trifluorobiphenyl-3-yl)-4-fluoropyrrolidine-2-carboxamide] | < 1000
NC(=O)c1nn(CC(=O)N2C[C@H](F)C[C@H]2C(=O)Nc2cccc(-c3cc(F)cc(F)c3Cl)c2F)c2ccccc12 [Compound 94, 1-(2-((2S,4R)-2-(2′-chloro-2,3′,5′-trifluorobiphenyl-3-ylcarbamoyl)-4-fluoropyrrolidin-1-yl)-2-oxoethyl)-1H-indazole-3-carboxamide] | < 1000
CC(=O)c1cn(CC(=O)N2C[C@H](F)C[C@H]2C(=O)Nc2cccc(-c3cc(F)cc(F)c3Cl)c2F)c2ccccc12 [Compound 95, (2S,4R)-1-(2-(3-acetyl-1H-indol-1-yl)acetyl)-N-(2′-chloro-2,3′,5′-trifluorobiphenyl-3-yl)-4-fluoropyrrolidine-2-carboxamide] | < 1000
CC(=O)c1cn(CC(=O)N2C[C@H](F)C[C@H]2C(=O)Nc2cccc(-c3ccccc3Cl)c2F)c2cccc(C#N)c12 [Compound 97, (2S,4R)-1-(2-(3-acetyl-4-cyano-1H-indol-1-yl)acetyl)-N-(2′-chloro-2-fluorobiphenyl-3-yl)-4-fluoropyrrolidine-2-carboxamide] | < 1000
N#Cc1cccc2c(C(N)=O)nn(CC(=O)N3C[C@H](F)C[C@H]3C(=O)Nc3cccc(-c4ccccc4Cl)c3F)c12 [Compound 111, 1-(2-((2S,4R)-2-((2′-Chloro-2-fluoro-[1,1′-biphenyl]-3-yl)carbamoyl)-4-fluoropyrrolidin-1-yl)-2-oxoethyl)-7-cyano-1H-indazole-3-carboxamide] | < 1000
CC(=O)c1cn(CC(=O)N2C[C@H](F)C[C@H]2C(=O)Nc2cccc(-c3ccccc3Cl)c2F)c2c(-c3ccc(Cl)nc3)cccc12 [Compound 112, (2S,4R)-1-(2-(3-acetyl-7-(6-chloropyridin-3-yl)-1H-indol-1-yl)acetyl)-N-(2′-chloro-2-fluorobiphenyl-3-yl)-4-fluoropyrrolidine-2-carboxamide] | < 1000
CC(=O)c1cn(CC(=O)N2C[C@H](F)C[C@H]2C(=O)Nc2cccc(-c3ccccc3Cl)c2F)c2c(C3CC3)cccc12 [Compound 115, (2S,4R)-1-(2-(3-acetyl-7-cyclopropyl-1H-indol-1-yl)acetyl)-N-(2′-chloro-2-fluorobiphenyl-3-yl)-4-fluoropyrrolidine-2-carboxamide] | < 1000
CC(=O)c1ccc(Cl)c(-c2cccc(NC(=O)[C@@H]3C[C@@H](F)CN3C(=O)Cn3nc(C(N)=O)c4ccccc43)c2F)c1 [Compound 117, 1-(2-((2S,4R)-2-((5′-Acetyl-2′-chloro-2-fluoro-[1,1′-biphenyl]-3-yl)carbamoyl)-4-fluoropyrrolidin-1-yl)-2-oxoethyl)-1H-indazole-3-carboxamide] | < 1000
CC(=O)c1cn(CC(=O)N2C[C@H](F)C[C@H]2C(=O)Nc2cccc(Br)n2)c2ccc(C3(NC(=O)c4ncccn4)CC3)cc12 [Compound 119, N-(1-(3-acetyl-1-(2-((2S,4R)-2-(6-bromopyridin-2-ylcarbamoyl)-4-fluoropyrrolidin-1-yl)-2-oxoethyl)-1H-indol-5-yl)cyclopropyl) pyrimidine-2-carboxamide] | < 1000
NC(=O)c1nn(CC(=O)N2C[C@H](F)C[C@H]2C(=O)Nc2cccc(-c3cc(OC(F)(F)F)ccc3Cl)c2F)c2ccccc12 [Compound 120, 1-(2-((2S,4R)-2-(2′-chloro-2-fluoro-5′-(trifluoromethoxy)biphenyl-3-ylcarbamoyl)-4-fluoropyrrolidin-1-yl)-2-oxoethyl)-1H-indazole-3-carboxamide] | < 1000
NC(=O)c1cn(CC(=O)N2C[C@H](F)C[C@H]2c2nc3cc(-c4ccccc4Cl)ccc3[nH]2)c2ccccc12 [Compound 121, 1-(2-((2S,4R)-2-(5-(2-chlorophenyl)-1H-benzo[d]imidazol-2-yl)-4-fluoropyrrolidin-1-yl)-2-oxoethyl)-1H-indole-3-carboxamide] | > 10000
NC(=O)c1nn(CC(=O)N2C[C@H](F)C[C@H]2C(=O)Nc2cccc(-c3ccc4[nH]cnc4c3Cl)c2F)c2ccccc12 [Compound 122, 1-(2-((2S,4R)-2-(3-(4-chloro-1H-benzo[d]imidazol-5-yl)-2-fluorophenylcarbamoyl)-4-fluoropyrrolidin-1-yl)-2-oxoethyl)-1H-indazole-3-carboxamide] | < 1000

Same assay, conditions: Table 1; Human Factor D 80 nM, substrate Z-L-Lys-SBzl; read-out: IC50

IC50 [nM] | Compound
> 10000 | CC(=O)Nc1cccc2c1c(C(C)=O)cn2CC(=O)N1C[C@H](F)C[C@H]1C(=O)Nc1cccc(-c2ccccc2Cl)c1F [Compound 91, (2S,4R)-1-(2-(4-acetamido-3-acetyl-1H-indol-1-yl)acetyl)-N-(2′-chloro-2-fluorobiphenyl-3-yl)-4-fluoropyrrolidine-2-carboxamide]
< 1000 | NC(=O)c1cn(CC(=O)N2C[C@H](F)C[C@H]2C(=O)Nc2cccc(-c3ccccc3Cl)c2F)c2sccc12 [Compound 98, 6-(2-((2S,4R)-2-(2′-chloro-2-fluorobiphenyl-3-ylcarbamoyl)-4-fluoropyrrolidin-1-yl)-2-oxoethyl)-6H-thieno[2,3-b]pyrrole-4-carboxamide]
< 1000 | NC(=O)c1nn(CC(=O)N2C[C@H](F)C[C@H]2C(=O)Nc2cccc(-c3ccccc3Cl)c2F)c2ccsc12 [Compound 99, 1-(2-((2S,4R)-2-((2′-Chloro-2-fluoro-[1,1′-biphenyl]-3-yl)carbamoyl)-4-fluoropyrrolidin-1-yl)-2-oxoethyl)-1H-thieno[3,2-c]pyrazole-3-carboxamide]
< 1000 | NC(=O)c1nn(CC(=O)N2C[C@H](F)C[C@H]2C(=O)Nc2cccc(-c3c(F)cc(F)cc3Cl)n2)c2cnccc12 [Compound 100, 1-(2-((2S,4R)-2-(6-(2-chloro-4,6-difluorophenyl)pyridin-2-ylcarbamoyl)-4-fluoropyrrolidin-1-yl)-2-oxoethyl)-1H-pyrazolo[3,4-c]pyridine-3-carboxamide]
< 1000 | NC(=O)c1nn(CC(=O)N2C[C@H](F)C[C@H]2C(=O)Nc2cccc(-c3c(F)cc(F)cc3Cl)c2)c2cnccc12 [Compound 101, 1-(2-((2S,4R)-2-(2′-chloro-4′,6′-difluorobiphenyl-3-ylcarbamoyl)-4-fluoropyrrolidin-1-yl)-2-oxoethyl)-1H-pyrazolo[3,4-c]pyridine-3-carboxamide]
< 1000 | NC(=O)c1cn(CC(=O)N2C[C@H](F)C[C@H]2C(=O)Nc2cccc(-c3ccccc3Cl)c2F)c2ccsc12 [Compound 103, 4-(2-((2S,4R)-2-(2′-chloro-2-fluorobiphenyl-3-ylcarbamoyl)-4-fluoropyrrolidin-1-yl)-2-oxoethyl)-4H-thieno[3,2-b]pyrrole-6-carboxamide]
< 1000 | NC(=O)c1nn(CC(=O)N2C[C@H](F)C[C@H]2C(=O)Nc2cccc(-c3ccccc3Cl)c2F)c2c1CCCC2 [Compound 104, 1-(2-((2S,4R)-2-((2′-chloro-2-fluoro-[1,1′-biphenyl]-3-yl)carbamoyl)-4-fluoropyrrolidin-1-yl)-2-oxoethyl)-4,5,6,7-tetrahydro-1H-indazole-3-carboxamide]
< 1000 | NC(=O)c1nn(CC(=O)N2C[C@H](F)C[C@H]2C(=O)Nc2cccc(Br)n2)c2ccsc12 [Compound 106, 1-(2-((2S,4R)-2-((6-Bromopyridin-2-yl)carbamoyl)-4-fluoropyrrolidin-1-yl)-2-oxoethyl)-1H-thieno[3,2-c]pyrazole-3-carboxamide]
< 1000 | NC(=O)c1nn(CC(=O)N2[C@@H]3C[C@@H]3C[C@H]2C(=O)NCc2cccc(Cl)c2F)c2ccsc12 [Compound 107, 1-(2-((1R,3S,5R)-3-(3-chloro-2-fluorobenzylcarbamoyl)-2-azabicyclo[3.1.0]hexan-2-yl)-2-oxoethyl)-1H-thieno[3,2-c]pyrazole-3-carboxamide]
> 10000 | COc1ncc(-c2cn(CC(=O)N3C[C@H](F)C[C@H]3C(=O)Nc3cccc(-c4ccccc4Cl)c3F)nc2C(N)=O)cn1 [Compound 110, 1-(2-((2S,4R)-2-((2′-Chloro-2-fluoro-[1,1′-biphenyl]-3-yl)carbamoyl)-4-fluoropyrrolidin-1-yl)-2-oxoethyl)-4-(2-methoxypyrimidin-5-yl)-1H-pyrazole-3-carboxamide]
< 1000 | Cc1cc2c(s1)c(C(N)=O)nn2CC(=O)N1C[C@H](F)C[C@H]1C(=O)Nc1cccc(-c2ccccc2Cl)c1F [Compound 113, 1-(2-((2S,4R)-2-((2′-Chloro-2-fluoro-[1,1′-biphenyl]-3-yl)carbamoyl)-4-fluoropyrrolidin-1-yl)-2-oxoethyl)-5-methyl-1H-thieno[3,2-c]pyrazole-3-carboxamide]
< 1000 | CC(=O)c1cn(CC(=O)N2C[C@H](F)C[C@H]2C(=O)Nc2cccc(-c3ccccc3Cl)c2F)c2c(-c3cn[nH]c3)cccc12 [Compound 114, (2S,4R)-1-(2-(3-acetyl-7-(1H-pyrazol-4-yl)-1H-indol-1-yl)acetyl)-N-(2′-chloro-2-fluorobiphenyl-3-yl)-4-fluoropyrrolidine-2-carboxamide]
< 1000 | Cc1cc2c(s1)c(C(N)=O)nn2CC(=O)N1C[C@H](F)C[C@H]1C(=O)Nc1cccc(Br)n1 [Compound 118, 1-(2-((2S,4R)-2-(6-bromopyridin-2-ylcarbamoyl)-4-fluoropyrrolidin-1-yl)-2-oxoethyl)-5-methyl-1H-thieno[3,2-c]pyrazole-3-carboxamide]
